The supplement of paper PMC10307832

Key:
Assay in all cases: relative viability (nuclei count vs DMSO), 5 days (fraction); higher = more cells survive
[1] = compound: CNC(=O)c1cc(Oc2ccc(NC(=O)Nc3ccc(Cl)c(C(F)(F)F)c3)cc2)ccn1 [Sorafenib] + COc1cc2c(Oc3ccc(NC(=O)C4(C(=O)Nc5ccc(F)cc5)CC4)cc3F)ccnc2cc1OCCCN1CCOCC1 [Foretinib] (partner 0.25 µM)
Procedure, shortened: (§1)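 Dosing by pin tool came one day after lung cancer cell lines were seeded in 1536-well plates, using either one drug or a fixed anchor-drug dose plus five library-drug doses (not always all listed) in √10 steps. After 5 days, nuclei were counted on 4× images. Relative viability is treated-well nuclei count divided by vehicle-well nuclei count, and values are medians of duplicate plates.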

[2] = compound: CNC(=O)c1cc(Oc2ccc(NC(=O)Nc3ccc(Cl)c(C(F)(F)F)c3)cc2)ccn1 [Sorafenib] + CC(=O)c1c(C)c2cnc(Nc3ccc(N4CCNCC4)cn3)nc2n(C2CCCC2)c1=O [Palbociclib] (partner 0.5 µM)
Procedure, shortened: as §1

[3] = compound: CNC(=O)c1cc(Oc2ccc(NC(=O)Nc3ccc(Cl)c(C(F)(F)F)c3)cc2)ccn1 [Sorafenib] + CS(=O)(=O)CCNCc1ccc(-c2ccc3ncnc(Nc4ccc(OCc5cccc(F)c5)c(Cl)c4)c3c2)o1 [Lapatinib] (partner 2 µM)
Procedure, shortened: as §1

[4] = compound: CNC(=O)c1cc(Oc2ccc(NC(=O)Nc3ccc(Cl)c(C(F)(F)F)c3)cc2)ccn1 [Sorafenib] + O=C(c1cc(Cc2n[nH]c(=O)c3ccccc23)ccc1F)N1CCN(C(=O)C2CC2)CC1 [Olaparib] (partner 8 µM)
Procedure, shortened: as §1

[5] = compound: CNC(=O)c1cc(Oc2ccc(NC(=O)Nc3ccc(Cl)c(C(F)(F)F)c3)cc2)ccn1 [Sorafenib]
Procedure, shortened: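 Lung cancer cell lines received five library-drug doses (not always all listed) spaced by √10, pinned on vehicle-anchored 1536-well plates after an overnight stay at 37 °C. Five days later, with no medium change, nuclei were Hoechst-stained, imaged at 4× and counted with MetaXpress. Viability is treated-well nuclei relative to vehicle-well nuclei, as a median across plates. Passing plates had control CV below 25% and at least one doubling.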

Cell Line	relative viability ([1]; first compound 0.08 µM)	relative viability ([1]; first compound 0.253 µM)	relative viability ([1]; first compound 2.53 µM)	relative viability ([1]; first compound 8 µM)	relative viability ([2]; first compound 0.08 µM)	relative viability ([2]; first compound 0.253 µM)	relative viability ([2]; first compound 2.53 µM)	relative viability ([2]; first compound 8 µM)	relative viability ([3]; first compound 0.08 µM)	relative viability ([3]; first compound 0.253 µM)	relative viability ([3]; first compound 2.53 µM)	relative viability ([3]; first compound 8 µM)	relative viability ([4]; first compound 0.08 µM)	relative viability ([4]; first compound 0.253 µM)	relative viability ([4]; first compound 2.53 µM)	relative viability ([4]; first compound 8 µM)	relative viability ([5]; 0.08 µM)	relative viability ([5]; 0.253 µM)	relative viability ([5]; 2.53 µM)	relative viability ([5]; 8 µM)
NCI-H1437	1.26	1.17	1.13	0.742	0.324	0.256	0.304	0.246	0.865	0.654	0.773	0.346	0.633	0.585	0.493	0.254	0.999	0.872	0.945	0.583
HOP-62	1.05	0.916	0.749	0.676	0.454	0.372	0.358	0.263	0.928	0.872	0.879	0.93	0.28	0.389	0.405	0.249	0.986	0.858	0.764	0.589
LCLC-97TM1	0.959	0.837	0.897	0.926	0.251	0.195	0.182	0.184	0.678	0.707	0.701	0.603	0.413	0.324	0.297	0.253	1.16	0.778	–	0.703
NCI-H2009	1.27	1.18	1.09	0.916	0.275	0.115	0.21	0.198	0.884	0.812	0.968	0.47	0.621	0.533	0.524	0.556	0.951	0.786	0.924	0.731
NCI-H647	1.25	1	0.987	0.48	0.373	0.316	0.284	0.082	1.18	0.868	1.19	0.426	0.568	0.524	0.356	0.0229	1.05	0.763	0.853	0.492
NCI-H1563	0.992	0.929	0.943	0.577	–	–	–	–	1.01	0.92	0.884	0.671	–	–	–	–	1.07	0.958	1.02	0.779
NCI-H3122	0.985	0.993	1.01	0.618	0.204	0.2	0.177	0.18	1.05	0.987	1.02	1.01	0.639	0.611	0.6	0.53	0.994	1.01	0.977	0.881
